Data reported in patent US11147853B2, “Polypeptide binding to a plurality of amyloid monomers and aggregates, and use thereof” (Hangzhou Wisdom Panacea Biologics Co., Ltd., priority 2015, dated 2021).
Where two headings read alike, the source gives them in different places. Where no end group is shown, it is not given here.

How the values were obtained:
[1] = target: Aβ42 oligomers (Homo sapiens, UniProt P05067); test: ELISA binding of histidine-tagged ZR derivatives to Aβ42 oligomers
[2] = tested on: SH-SY5Y cells; details: for cell activity (MTT, relative to PBS control): Aβ42 4 μM, 48 hours, Aβ42 alone 71%
Description: (§1) SH-SY5Y cells were prepared into a single cell suspension with a medium (DMEM) containing 10% fetal bovine serum and then inoculated into a 96-well cell culture plate at 10000 cells per well and with a volume of 100 μL per well. The cells were incubated at 37° C., 5% of CO2 concentration for 24 hours in an incubator.
Aβ42: the final concentration of Aβ42 was 4 μM; a mixture of Aβ42 and ZR (Aβ:ZR=1:0.5): the final concentration of Aβ42 protein was 4 μM and the final concentration of ZR was 2 μM; a mixture of Aβ42 and ZR (Aβ: ZR=1:1): the final concentration of Aβ42 protein was 4 μM and the final concentration of ZR was 4 μM;
(§2) Cells were further cultured for 48 hours, then 10 μL of MTT solution was added into each well and incubated at 37° C. for 3 hours. Then the incubation was stopped by adding 100 μL dissolve solution (10% SDS and 5% iso-butanol dissolved in 0.01 M HCL) to each well, and incubated at 37° C. overnight to fully dissolve the MTT crystals. The absorbance of each well was measured on a multifunctional ELISA reader at a wavelength of 570 nm. After subtracting the background, the absorbance of the sample was divided by the absorbance of PBS control to act as an indicator of the cell activity, and the significant differences were analyzed.

[3] = tested on: SH-SY5Y cells; details: for cell activity (MTT, relative to PBS control): amylin 4 μM, 48 hours, amylin alone 61%
Description: as §1
Amylin: the final concentration of amylin was 4 μM; a mixture of Amylin and ZR (Amylin:ZR=1:1): the final concentration of Amylin protein was 4 μM and the final concentration of ZR was 4 μM; a mixture of Amylin and ZR (Amylin: ZR=1:10): the final concentration of Amylin protein was 4 μM and the final concentration of ZR was 40 μM;
as §2

[4] = tested on: SH-SY5Y cells; details: for cell activity (MTT, relative to PBS control): lysozyme 20 μM, 48 hours, lysozyme alone 55%
Description: as §1
Lysozyme: the final concentration of lysozyme was 20 μM; a mixture of lysozyme and ZR (lysozyme:ZR=1:1): the final concentration of lysozyme protein was 20 μM and the final concentration of ZR was 20 μM; a mixture of lysozyme and ZR (lysozyme: ZR=1:10): the final concentration of lysozyme protein was 20 μM and the final concentration of ZR was 200 μM;
as §2

[5] = tested on: SH-SY5Y cells; details: for cell activity (MTT, relative to PBS control): insulin 60 μM, 48 hours, insulin alone 77%
Description: as §1
Insulin: the final concentration of insulin was 60 μM; a mixture of insulin and ZR (insulin:ZR=1:1): the final concentration of insulin protein was 60 μM and the final concentration of ZR was 60 μM; a mixture of insulin and ZR (insulin: ZR=1:5): the final concentration of insulin protein was 60 μM and the final concentration of ZR was 300 μM; PBS was used as control;
as §2

Chain of Aβ42 oligomers (P05067 672-713 limits assumed): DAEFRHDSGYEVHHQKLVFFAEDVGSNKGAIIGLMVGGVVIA

## AFFNNKR [sequence 7]
[1]
  OD450 of binding to Aβ42 oligomers: 0.22

## SFANNKR [sequence 9]
[1]
  OD450 of binding to Aβ42 oligomers: 0.15

## SFFNAKR [sequence 11]
[1]
  OD450 of binding to Aβ42 oligomers: 0.18

## SFFNNAR [sequence 12]
[1]
  OD450 of binding to Aβ42 oligomers: 0.14

## SFFNNKA [sequence 13]
[1]
  OD450 of binding to Aβ42 oligomers: 0.14

## SFFNNKR [ZR, Ser-Phe-Phe-Asn-Asn-Lys-Arg]
[2]; ZR 2 μM (Aβ:ZR=1:0.5)
  cell activity (MTT, relative to PBS control): 80%
[2]; ZR 4 μM (Aβ:ZR=1:1)
  cell activity (MTT, relative to PBS control): 82%
[2]; molar ratio 1:1
  inhibition of cytotoxicity induced by Aβ42: 37.8%
[3]; ZR 4 μM (Amylin:ZR=1:1)
  cell activity (MTT, relative to PBS control): 70%
[3]; ZR 40 μM (Amylin:ZR=1:10)
  cell activity (MTT, relative to PBS control): 75%
[3]; molar ratio 1:10
  inhibition of cytotoxicity induced by amylin: 45.4%
[4]; ZR 20 μM (lysozyme:ZR=1:1)
  cell activity (MTT, relative to PBS control): 85%
[4]; ZR 200 μM (lysozyme:ZR=1:10)
  cell activity (MTT, relative to PBS control): 93%
[4]; molar ratio 1:10
  inhibition of cytotoxicity induced by lysozyme: 117.6%
[5]; ZR 60 μM (insulin:ZR=1:1)
  cell activity (MTT, relative to PBS control): 92%
[5]; ZR 300 μM (insulin:ZR=1:5)
  cell activity (MTT, relative to PBS control): 102%
[5]; molar ratio 1:5
  inhibition of cytotoxicity induced by insulin: 89.8%
